Experimental data: patent US20090317838A1, “DETECTION OF BACTERIAL PEPTIDOGLYCAN-LIKE COMPOUNDS” (priority 2008, published 2009)

Key:
NOD2 = molecular target: T1, NOD2 (Homo sapiens, UniProt Q9HC29); assay: NF-κB-luciferase reporter assay in HEK293T cells transfected with NOD2; type: cell-based; settings: for response of NOD2-transfected cells to inflammatory cytokines: acts via endogenous receptors, compared with fsNOD2 cells
T1 construct: host or cells: HEK293T
Procedure: Human embryonic kidney HEK293T cells (American Type Culture Collection (“ATCC,”) Manassas, Va., USA) were cultured in Dulbecco's modified Eagle's medium (Invitrogen, Carlsbad, Calif., USA) supplemented with 10% fetal calf serum (“FCS”) (PAA Laboratories GmbH, Pasching, Austria). HEK293T cells were seeded into 24 well cell culture plates at a density of 10^5 cells/ml (500 μl/well) and transfected with various expression plasmids, as previously described (Girardin 2003a) (FIG. 1).
(§1) Transfection was performed as described by Girardin et al., 2003a. HEK293T cells were transfected overnight using 1% FuGENE 6 transfection reagent (Roche Diagnostics, Mannheim, Germany) with 75 ng of the reporter plasmid pNF-kB-Luc (Stratagene, La Jolla, Calif. USA) and 1 ng p-UNO-hNODt (InvivoGen, San Diego, Calif. USA) or fsNOD2 expression plasmids (Begue et al. (2006); Chamaillard et al. (2003)). The plasmid pNF-κB-Luc is a 5.7 kb cis-reporting pNF-κB-Luc plasmid comprising an NF-κB enhancer region and a firefly luciferase gene controlled by a synthetic promoter that contains direct repeats of the transcription recognition sequences for the binding sites for NF-κB (Stratagene, Carlsbad, Calif., USA). The NOD2 3020InsC frameshift mutation was introduced using the QuikChange XL site-directed mutagenesis kit (Stratagene, Carlsbad, Calif., USA). The entire coding region was verified by sequencing and the size of the encoded product was verified by immunoblotting (Girardin et al., 2003b). A total plasmid concentration of 250 ng was achieved by addition of pcDNA3.1 vector.
Following a twenty hour transfection period, 50 μl of plasma was added into the wells containing the transfected cells. Purified peptidoglycan, diluted in plasma, from S. aureus (Sigma, St. Louis, Mo., USA) and E. coli (kind gift of Dominique Mengin-Lecreulx or InviroGen, San Diego, Calif., USA) served as positive controls. After six hours of peptidoglycan stimulation, the cell supernatant was removed and the cells were lysed with 100 μl of lysis buffer (25 mM Tris-phosphate pH 8, 8 mM MgCl2, 1 mM dithiothreitol, 15% glycerol, and 1% Triton X-100). Luciferase expression was measured from a 10 μl aliquot of cell extract using a microplate luminometer (LB960 luminometer centro, Berthold Technologies, Bad Wildbad, Germany) after addition of 100 μl of substrate buffer to a final concentration of 1.8 mM luciferin and 1 mM ATP. Each measurement was performed in triplicate. The detection level of the assay is at least 0.15 ug/ml PGN, determined by adding purified PGN to healthy donor plasma.
To validate the experimental system, NF-κB activation in HEK293T cells co-transfected with pNF-κB-Luc and pUNO-hNOD2 was tested in response to stimulation with both MPD and PGN derived from S. aureus (FIG. 2). […]

[1] = molecular target: T2, NOD2 3020InsC frameshift mutant (fsNOD2) (Homo sapiens, UniProt Q9HC29, L1007P); assay: NF-κB-luciferase reporter assay in HEK293T cells transfected with frameshift NOD2 (fsNOD2); type: cell-based; settings: HEK293T co-transfected with pNF-κB-Luc and NOD2 3020InsC
T2 construct: expressed in transfected cells; host or cells: HEK293T
T2 sequence (Q9HC29 1-1007 L1007P): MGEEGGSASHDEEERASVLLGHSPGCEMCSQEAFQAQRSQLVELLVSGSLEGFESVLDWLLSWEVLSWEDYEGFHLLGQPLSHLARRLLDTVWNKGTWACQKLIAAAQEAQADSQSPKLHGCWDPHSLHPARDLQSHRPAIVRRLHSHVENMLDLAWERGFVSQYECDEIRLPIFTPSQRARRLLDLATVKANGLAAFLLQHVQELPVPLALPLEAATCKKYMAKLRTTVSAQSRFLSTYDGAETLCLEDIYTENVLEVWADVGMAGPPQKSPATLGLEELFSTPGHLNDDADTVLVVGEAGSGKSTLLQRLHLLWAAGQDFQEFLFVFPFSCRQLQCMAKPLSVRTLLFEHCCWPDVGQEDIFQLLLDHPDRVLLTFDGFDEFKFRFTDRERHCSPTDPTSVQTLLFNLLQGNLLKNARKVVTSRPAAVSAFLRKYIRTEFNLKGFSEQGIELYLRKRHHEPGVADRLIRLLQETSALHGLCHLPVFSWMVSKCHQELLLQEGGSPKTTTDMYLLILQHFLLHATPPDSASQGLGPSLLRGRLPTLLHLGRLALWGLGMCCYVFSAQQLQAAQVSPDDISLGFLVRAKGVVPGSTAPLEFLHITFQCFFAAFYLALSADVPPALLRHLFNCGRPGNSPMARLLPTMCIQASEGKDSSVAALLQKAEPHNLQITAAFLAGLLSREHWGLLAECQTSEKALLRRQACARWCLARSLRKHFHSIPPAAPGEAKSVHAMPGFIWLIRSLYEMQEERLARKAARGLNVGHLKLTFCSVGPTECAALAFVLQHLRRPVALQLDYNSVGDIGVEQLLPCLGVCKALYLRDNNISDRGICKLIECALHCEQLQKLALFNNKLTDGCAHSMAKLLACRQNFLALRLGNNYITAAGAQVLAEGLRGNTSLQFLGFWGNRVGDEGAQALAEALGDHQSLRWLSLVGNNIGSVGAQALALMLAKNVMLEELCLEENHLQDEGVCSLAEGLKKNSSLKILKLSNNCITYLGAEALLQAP
Procedure: as §1
The NOD2 3020InsC variant comprises a Leu1007-Pro substitution in the tenth leucine-rich region followed by a premature stop codon. It activates the NF-κB pathway to the same extent as wild-type NOD2 when overexpressed, but is unable to detect MDP or PGN (Girardin et al., 2003b).
The specificity of the system was checked by transfecting an expression plasmid for frameshift NOD2 (fsNOD2), a mutant unable to activate NF-κB in response to MDP (FIG. 11E).

T1 sequence (Q9HC29 whole entry): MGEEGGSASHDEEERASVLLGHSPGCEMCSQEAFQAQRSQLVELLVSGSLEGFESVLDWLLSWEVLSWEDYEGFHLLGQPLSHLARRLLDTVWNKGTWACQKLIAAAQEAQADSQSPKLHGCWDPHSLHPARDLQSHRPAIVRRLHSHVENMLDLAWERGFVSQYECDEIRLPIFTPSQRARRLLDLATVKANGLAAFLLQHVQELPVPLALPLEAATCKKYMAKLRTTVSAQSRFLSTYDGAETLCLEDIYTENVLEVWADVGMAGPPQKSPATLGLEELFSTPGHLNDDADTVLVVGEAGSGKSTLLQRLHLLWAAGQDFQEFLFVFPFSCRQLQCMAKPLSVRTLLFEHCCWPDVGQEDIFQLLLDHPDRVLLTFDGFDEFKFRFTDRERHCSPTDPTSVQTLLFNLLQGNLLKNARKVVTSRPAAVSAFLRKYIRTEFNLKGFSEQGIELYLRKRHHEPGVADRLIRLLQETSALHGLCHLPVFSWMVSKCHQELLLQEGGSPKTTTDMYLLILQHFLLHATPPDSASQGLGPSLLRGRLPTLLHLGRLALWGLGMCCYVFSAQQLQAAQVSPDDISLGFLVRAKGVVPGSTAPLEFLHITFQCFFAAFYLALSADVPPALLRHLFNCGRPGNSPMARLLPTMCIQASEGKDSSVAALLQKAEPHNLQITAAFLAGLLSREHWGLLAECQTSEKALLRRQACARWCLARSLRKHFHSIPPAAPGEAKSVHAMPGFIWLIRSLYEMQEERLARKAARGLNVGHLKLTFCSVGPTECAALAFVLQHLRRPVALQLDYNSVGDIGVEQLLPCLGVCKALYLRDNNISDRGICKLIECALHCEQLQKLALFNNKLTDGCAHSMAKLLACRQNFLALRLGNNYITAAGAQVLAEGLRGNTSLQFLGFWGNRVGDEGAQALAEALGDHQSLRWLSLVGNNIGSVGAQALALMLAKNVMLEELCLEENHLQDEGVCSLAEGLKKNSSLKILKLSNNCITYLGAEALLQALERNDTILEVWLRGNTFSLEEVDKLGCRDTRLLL

Molecule	NF-κB activation (luciferase expression) (NOD2; 300 pM MDP, HEK293T co-transfected with pNF-κB-Luc and pUNO-hNOD2)	signal in NOD2 reporter system (luciferase, RLU) (NOD2; 6 hours of incubation, without plasma)	luciferase / NF-κB response in fsNOD2-transfected cells [1]	response of NOD2-transfected cells to inflammatory cytokines (NOD2)
CC(=O)N[C@H]1C(O)O[C@H](CO)[C@@H](O)[C@@H]1O[C@H](C)C(=O)N[C@@H](C)C(=O)N[C@H](CCC(=O)O)C(N)=O (mixture of isomers) [MDP, muramyl dipeptide]	induced NF-κB activation	positive signals	no increase in luciferase	
interleukin 1β [IL-1β]			similarly responsive	similarly responsive
tumor necrosis factor-α [TNF-α]			similarly responsive	similarly responsive
